± gives the expanded uncertainty stated by the source.
Assay: molar heat capacity at constant pressure
Settings: 101.33 kPa, Crystal
[1] = 288.15 K, Small sample (50 mg) DSC
[2] = 293.15 K, Small sample (50 mg) DSC
[3] = 298.15 K, Small sample (50 mg) DSC
[4] = 303.15 K, Small sample (50 mg) DSC
[5] = 308.15 K, Small sample (50 mg) DSC
[6] = 313.15 K, Small sample (50 mg) DSC
[7] = 318.15 K, Small sample (50 mg) DSC
[8] = 323.15 K, Small sample (50 mg) DSC
[9] = 328.15 K, Small sample (50 mg) DSC
[10] = 333.15 K, Small sample (50 mg) DSC
[11] = 338.15 K, Small sample (50 mg) DSC
[12] = 343.15 K, Small sample (50 mg) DSC
[13] = 348.15 K, Small sample (50 mg) DSC
[14] = 353.15 K, Small sample (50 mg) DSC
[15] = 358.15 K, Small sample (50 mg) DSC

Structure (SMILES) | molar heat capacity at constant pressure [1] [J/K/mol] | molar heat capacity at constant pressure [2] [J/K/mol] | molar heat capacity at constant pressure [3] [J/K/mol] | molar heat capacity at constant pressure [4] [J/K/mol] | molar heat capacity at constant pressure [5] [J/K/mol] | molar heat capacity at constant pressure [6] [J/K/mol] | molar heat capacity at constant pressure [7] [J/K/mol] | molar heat capacity at constant pressure [8] [J/K/mol] | molar heat capacity at constant pressure [9] [J/K/mol] | molar heat capacity at constant pressure [10] [J/K/mol] | molar heat capacity at constant pressure [11] [J/K/mol] | molar heat capacity at constant pressure [12] [J/K/mol] | molar heat capacity at constant pressure [13] [J/K/mol] | molar heat capacity at constant pressure [14] [J/K/mol] | molar heat capacity at constant pressure [15] [J/K/mol] | also measured
CC(=O)N[C@@H](C=O)[C@@H](O)[C@H](O)[C@H](O)CO [N-acetyl-D-glucosamine] | 269.8 ± 5.8 | 276.4 ± 5.7 | 276.9 ± 6 | 278 ± 6.7 | 283.3 ± 6.4 | 281 ± 7 | 281.4 ± 7.2 | 292.7 ± 7.3 | 293.1 ± 7 | 299.4 ± 6.9 | 303.8 ± 6.9 | 308.7 ± 6.8 | 319.7 ± 6.6 | 325.2 ± 6.5 | 332 ± 6.4 | 
O=C[C@H](O)[C@@H](O)[C@H](O[C@H]1O[C@H](CO)[C@@H](O[C@H]2O[C@H](CO)[C@@H](O)[C@H](O)[C@H]2O)[C@H](O)[C@H]1O)[C@H](O)CO [maltotriose] | 638.3 ± 10 | 654 ± 10 | 662.5 ± 10 | 662.7 ± 11 | 666.3 ± 11 | 676.9 ± 12 | 683.9 ± 12 | 698.2 ± 12 | 707.4 ± 12 | 718.6 ± 13 | 736.3 ± 12 | 753.8 ± 13 | 773.2 ± 13 | 787.3 ± 13 | 823.7 ± 14 | 
CO[C@H]1O[C@H](CO)[C@@H](O)[C@H](O)[C@H]1O [methyl-α-D-glucopyranoside] | 232.1 ± 4.3 | 231 ± 4.3 | 233.7 ± 4.5 | 235.7 ± 4.6 | 240.7 ± 4.8 | 247.5 ± 4.9 | 255.9 ± 5 | 264.7 ± 5.3 | 274.2 ± 5.6 | 283.6 ± 5 | 293.4 ± 5.6 | 302.9 ± 5.1 | 311.5 ± 5.2 | 319 ± 5.2 | 325.5 ± 5.4 | 
O[C@@H]1[C@@H](O)[C@@H](O)OC[C@H]1O [xylopyranose, α-D-] |  |  |  |  |  |  |  |  |  |  |  |  |  |  |  | molar heat capacity at constant pressure (288.15 K, Vacuum adiabatic calorimetry): 178.3 ± 6 J/K/mol; molar heat capacity at constant pressure (293.15 K, Vacuum adiabatic calorimetry): 180.9 ± 6.2 J/K/mol; molar heat capacity at constant pressure (298.15 K, Vacuum adiabatic calorimetry): 180.4 ± 6.2 J/K/mol; molar heat capacity at constant pressure (303.15 K, Vacuum adiabatic calorimetry): 182.8 ± 7 J/K/mol; molar heat capacity at constant pressure (308.15 K, Vacuum adiabatic calorimetry): 185.7 ± 5.4 J/K/mol; molar heat capacity at constant pressure (313.15 K, Vacuum adiabatic calorimetry): 185.8 ± 5.2 J/K/mol; molar heat capacity at constant pressure (318.15 K, Vacuum adiabatic calorimetry): 187.3 ± 6.4 J/K/mol; molar heat capacity at constant pressure (323.15 K, Vacuum adiabatic calorimetry): 190.4 ± 6.8 J/K/mol; molar heat capacity at constant pressure (328.15 K, Vacuum adiabatic calorimetry): 192 ± 6.6 J/K/mol; molar heat capacity at constant pressure (333.15 K, Vacuum adiabatic calorimetry): 192.6 ± 6.8 J/K/mol; molar heat capacity at constant pressure (338.15 K, Vacuum adiabatic calorimetry): 195.7 ± 5.8 J/K/mol; molar heat capacity at constant pressure (343.15 K, Vacuum adiabatic calorimetry): 200 ± 5 J/K/mol; molar heat capacity at constant pressure (348.15 K, Vacuum adiabatic calorimetry): 204.6 ± 5.4 J/K/mol; molar heat capacity at constant pressure (353.15 K, Vacuum adiabatic calorimetry): 209.4 ± 4.8 J/K/mol; molar heat capacity at constant pressure (358.15 K, Vacuum adiabatic calorimetry): 213.8 ± 5 J/K/mol
OC[C@H]1O[C@H](O)[C@H](O)[C@@H](O)[C@@H]1O [α-D-glucose] | 210.2 ± 6.5 | 214.8 ± 5.3 | 219.9 ± 6.1 | 222.8 ± 5.3 | 226.5 ± 5.8 | 232.6 ± 6.3 | 235.8 ± 6.3 | 240.5 ± 6.7 | 242.1 ± 6.4 | 246.2 ± 6.8 | 250.5 ± 6.1 | 255.2 ± 6.2 | 260.4 ± 5.7 | 262.4 ± 5.9 | 267.7 ± 5.7 | 
O.OC[C@H]1O[C@@H](O[C@H]2[C@H](O)[C@@H](O)[C@@H](O)O[C@@H]2CO)[C@H](O)[C@@H](O)[C@H]1O [α-D-lactose hydrate] | 400.9 ± 9 | 426.9 ± 9.9 | 435.8 ± 9.8 | 440.7 ± 9.8 | 446.4 ± 9 | 450 ± 9.2 | 452.2 ± 9.2 | 459.8 ± 9.1 | 464.5 ± 9 | 468.3 ± 8.9 | 477.1 ± 9.2 | 488.2 ± 10 | 497.7 ± 9.9 | 506.8 ± 10 | 522.7 ± 10 | 
OC[C@H]1O[C@@H]2O[C@H]3[C@H](O)[C@@H](O)[C@@H](O[C@H]4[C@H](O)[C@@H](O)[C@@H](O[C@H]5[C@H](O)[C@@H](O)[C@@H](O[C@H]6[C@H](O)[C@@H](O)[C@@H](O[C@H]7[C@H](O)[C@@H](O)[C@@H](O[C@H]1[C@H](O)[C@H]2O)O[C@@H]7CO)O[C@@H]6CO)O[C@@H]5CO)O[C@@H]4CO)O[C@@H]3CO [α-cyclodextrin] | 1074.6 ± 26 | 1113.2 ± 31 | 1150 ± 32 | 1164.1 ± 36 | 1201.5 ± 52 | 1212.6 ± 50 | 1230.2 ± 52 | 1259.3 ± 51 | 1282.6 ± 47 | 1305.3 ± 31 | 1335.3 ± 42 | 1364.6 ± 30 | 1401.6 ± 45 | 1442.6 ± 43 | 1502.7 ± 37 | 
OC[C@H]1O[C@@H]2O[C@H]3[C@H](O)[C@@H](O)[C@@H](O[C@H]4[C@H](O)[C@@H](O)[C@@H](O[C@H]5[C@H](O)[C@@H](O)[C@@H](O[C@H]6[C@H](O)[C@@H](O)[C@@H](O[C@H]7[C@H](O)[C@@H](O)[C@@H](O[C@H]8[C@H](O)[C@@H](O)[C@@H](O[C@H]1[C@H](O)[C@H]2O)O[C@@H]8CO)O[C@@H]7CO)O[C@@H]6CO)O[C@@H]5CO)O[C@@H]4CO)O[C@@H]3CO [β-cyclodextrin] | 1253.4 ± 34 | 1298.3 ± 42 | 1341.3 ± 42 | 1357.6 ± 46 | 1401.3 ± 45 | 1414.1 ± 47 | 1434.7 ± 45 | 1468.5 ± 45 | 1495.7 ± 41 | 1522.1 ± 43 | 1557.1 ± 53 | 1591.3 ± 43 | 1634.4 ± 40 | 1682.1 ± 39 | 1752.1 ± 44 | 
